Assay results: patent US10919889B2, “Chiral heterocyclic compound with hedgehog pathway antagonist activity, method and use thereof” (SUZHOU KINTOR PHARMACEUTICALS, INC., priority 2016, dated 2021)

Target: T1, WT-Smo (Homo sapiens, UniProt Q99835)
T1 construct: HA; expressed in transfected cells
Test: Bodipy-Cyclopamine binding assay
Details: used in the Cheng-Prusoff equation
Procedure: Bodipy-Cyclopamine binding assay is a fluorescence based assay used to analysis the binding of Smo agonists. Hek293-SMO stable clones were established by puromycin (1 ug/ml, Invitrogen) selection after transfection with SMO-HA-pLVX plasmid Hek293-SMO cells were maintained in complete culture medium (DMEM with 4 mM L-Gln, 1.5 g/L sodium bicarbonate and 4.5 g/L glucose supplemented with 100 ug/ml hygromycin and 10% FBS). The expression of SMO was validated with western blot and cell immunofluorescence. Bodipy-Cyclopamine was purchased from Toronto Research Chemicals and dissolved in methanol.
Hek293-SMO cells were plated in 96-well-plate (3340, Corning), the final cell concentration is 15,000 cells/well in 100 ul 1% serum-containing DMEM. The plates were incubated in 37 degree for additional 48 hours.
Hek293-SMO plate were washed with PBS and fixed with 4% paraformaldehyde (PFA)/PBS for 20 min at room temperature. After removing the PFA buffer, the cells were incubated with DAPI/PBS (5 ug/mL) for 10 min and followed by twice wash with PBS. […] The fluorescence images were automatically captured and analyzed by a high content fluorescence imaging system (Arrayscan VTI, Thermo). […] IC50 values were calculated with GraphPad Prism software using the sigmoidal dose-response function. The Ki was calculated following the Cheng-Prusoff equation, as Ki=IC50/[1+[bodipy-cyclopamine]/Kd)].

T1 sequence (Q99835 28-787): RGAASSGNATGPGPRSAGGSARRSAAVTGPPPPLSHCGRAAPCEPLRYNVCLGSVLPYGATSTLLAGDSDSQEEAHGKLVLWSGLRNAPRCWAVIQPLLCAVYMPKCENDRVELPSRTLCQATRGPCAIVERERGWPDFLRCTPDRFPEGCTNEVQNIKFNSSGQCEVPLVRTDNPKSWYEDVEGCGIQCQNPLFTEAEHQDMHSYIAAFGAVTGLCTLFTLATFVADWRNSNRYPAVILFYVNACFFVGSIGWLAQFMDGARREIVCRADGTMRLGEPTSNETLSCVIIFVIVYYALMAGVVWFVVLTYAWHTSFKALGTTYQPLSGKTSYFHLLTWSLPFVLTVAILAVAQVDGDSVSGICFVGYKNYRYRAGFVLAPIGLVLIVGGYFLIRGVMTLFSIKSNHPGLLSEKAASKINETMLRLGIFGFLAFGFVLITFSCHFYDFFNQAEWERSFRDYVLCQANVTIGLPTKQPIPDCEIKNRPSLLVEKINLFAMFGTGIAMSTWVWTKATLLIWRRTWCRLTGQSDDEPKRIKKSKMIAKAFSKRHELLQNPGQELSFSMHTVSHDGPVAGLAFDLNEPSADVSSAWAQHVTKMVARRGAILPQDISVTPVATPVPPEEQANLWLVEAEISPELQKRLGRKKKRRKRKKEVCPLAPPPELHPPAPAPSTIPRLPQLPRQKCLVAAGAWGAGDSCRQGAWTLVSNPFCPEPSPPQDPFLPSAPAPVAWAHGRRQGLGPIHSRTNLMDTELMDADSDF

CC1=C2CC3C(CC=C4C[C@@H](O)CCC43C)C2CCC12O[C@@H]1CC(C)CN(CCNC(=O)CCCCCNC(=O)CCC3=[N+]4C(=Cc5c(C)cc(C)n5[B-]4(F)F)C=C3)C1C2C (stereo partly shown) [bodipy-cyclopamine]
Kd: 3.5 ± 0.8 nM
